Here are results for eleven molecules from ChEMBL document CHEMBL1201862, “PubChem BioAssay data set” (2004).

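Five compound concentrations were applied to cells in 96-well plates for 48 hours; endpoints were derived by simple linear interpolation of the resulting dose-response curve. GI50 is the concentration that inhibits growth by half.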 Active and inactive are the calls of the source. Rule as the data show it: active = GI50 up to about 1.1 µM and inactive = higher.

What all share (experiment): growth of human tumour cells (NCI), 48 h
Assay [1] deals with COLO 205.
Assay [2] relates to DU-145.
For assay [3], the system named is HCC 2998.
The subject of assay [4] is HCT-116.
Assay [5] deals with MDA-N.
In assay [6] the test system is MOLT-4.
In assay [7] the test system is NCI-H226.
Assay [8] relates to NCI-H522.
Assay [9] relates to NCI/ADR-RES.
Assay [10] relates to RPMI-8226.
The subject of assay [11] is SF-268.
Assay [12] has as its system SF-295.
The test system of assay [13] is SK-MEL-28.
Assay [14] deals with SNB-19.
For assay [15], the system named is SNB-75.
Assay [16] has as its system SW-620.
Assay [17] concerns T47D.
In assay [18] the test system is UACC-62.
Assay [19] has as its system UO-31.
In assay [20] the test system is SR.

Regarding `COC(=O)c1ccc(NCc2c(O)ccc(O)c2Br)cc1Cl`, the GI50 was 18.1 µM (inactive) in assay [1]; 16.2 µM (inactive) in assay [2]; 19.1 µM (inactive) in assay [3]; 17.8 µM (inactive) in assay [4]; 12 µM (inactive) in assay [5]; 1.36 µM (inactive) in assay [6]. In addition, the GI50 was 31.5 µM (inactive) in assay [7]; 0.329 µM (active) in assay [8]; 12.2 µM (inactive) in assay [9]; 3.56 µM (inactive) in assay [10]; 17.4 µM (inactive) in assay [11]; 18.9 µM (inactive) in [12]. Further, the GI50 in assay [13] was 16.8 µM (inactive); in assay [14] it was 25.9 µM (inactive); in [15], 23.1 µM (inactive); in assay [16], 12.2 µM (inactive); in assay [17], 19.6 µM (inactive); in assay [18] it was 15.7 µM (inactive). For the same molecule, the GI50 in assay [19] is 15.8 µM (inactive).
As for `O=C1C2CCCC2N1Cc1ccccc1` (stereo unspecified), the GI50 in [1], in assay [2], in assay [3], in [4], in assay [5] and in [6] was > 100 µM (inactive) in each case. Further, the GI50 in assay [7], in assay [8], in assay [9], in assay [10], in [11] and in assay [12] was > 100 µM (inactive) in each case. In addition, the GI50 in assay [15] was 49.5 µM (inactive); in [16] it was > 100 µM (inactive); in assay [17], > 100 µM (inactive); in assay [18], > 100 µM (inactive); in assay [19], 15.1 µM (inactive).
For `CN(C)/N=C/c1cn(C)c(=O)n(C)c1=O`, the GI50 in assay [1], in assay [2], in assay [3], in assay [4], in [5] and in assay [6] was > 100 µM (inactive) throughout. Besides, the GI50 in assay [7], in assay [8], in assay [9], in [10], in assay [11] and in assay [12] was > 100 µM (inactive) each time. Further, the GI50 in assay [13] is > 100 µM (inactive); in assay [14], > 100 µM (inactive); in [15], 35.4 µM (inactive); in assay [16] it was > 100 µM (inactive); in assay [17], > 100 µM (inactive); in [18] it was > 100 µM (inactive). In addition, in [19], the GI50 is > 100 µM (inactive).
Take `CC(C)CCCC(C)[C@H]1CC[C@H]2N/C(=N/Cc3ccccc3)CCC[C@]12C` (stereo partly specified): the GI50 in [1] was 1.42 µM (inactive); in [2], 2.52 µM (inactive); in assay [4], 2.6 µM (inactive); in assay [5], 1.71 µM (inactive); in [6], 1.88 µM (inactive); in assay [7], 2.07 µM (inactive). Besides, the GI50 was 1.65 µM (inactive) in assay [9]; 1.59 µM (inactive) in assay [10]; 2.2 µM (inactive) in assay [11]; 2.03 µM (inactive) in assay [12]; 1.47 µM (inactive) in assay [13]; 2.94 µM (inactive) in [14]. Further, the GI50 in assay [15] is 1.83 µM (inactive); in [20], 2.72 µM (inactive); in [16], 1.91 µM (inactive); in [17], 2.83 µM (inactive); in assay [18], 1.83 µM (inactive); in assay [19] it was 2.59 µM (inactive).
As for `CC1(C)Cc2ccccc2C(C)(Cl)C(=O)N1` (stereo unspecified), the GI50 in assay [1], in assay [2], in assay [3], in assay [4], in assay [5] and in assay [6] was > 10 µM (inactive) throughout. The GI50 in assay [7], in assay [9], in assay [10], in assay [11], in [12] and in [13] was > 10 µM (inactive) in each case. Also, the GI50 in assay [14], in assay [20], in assay [16], in assay [17], in assay [18] and in [19] was > 10 µM (inactive) in each case.
Take `CCCCCCCCCCCCCCCC(=O)OC1C(O)C(O)C(O)C(O)C12CO2` (stereo unspecified): the GI50 in [1] is 36.3 µM (inactive); in assay [2] it was 88.5 µM (inactive); in assay [3] it was 71.8 µM (inactive); in assay [4], 24.3 µM (inactive); in [5] it was > 100 µM (inactive); in assay [6], 12.2 µM (inactive). Besides, the GI50 in [7] was 42.8 µM (inactive); in assay [8], 33 µM (inactive); in assay [9] it was 46 µM (inactive); in assay [10], 26.4 µM (inactive); in assay [11] it was 34 µM (inactive); in [12], 70.1 µM (inactive). Moreover, the GI50 was > 100 µM (inactive) in [13]; > 100 µM (inactive) in assay [14]; 20.7 µM (inactive) in assay [15]; 14.7 µM (inactive) in assay [16]; > 100 µM (inactive) in assay [17]; 28.4 µM (inactive) in assay [18]. For the same molecule, the GI50 in assay [19] was 68.4 µM (inactive).
Regarding `CCc1nc2ccc(/N=N/N(C)C)cc2[nH]1`, the GI50 in assay [1], in assay [2], in [3], in assay [4], in assay [5] and in [6] was > 100 µM (inactive) throughout. For the same molecule, the GI50 in assay [7], in [8], in assay [9], in [10], in assay [11] and in [13] was > 100 µM (inactive) each time. In addition, the GI50 in [14], in [15], in assay [16], in assay [17], in assay [18] and in assay [19] was > 100 µM (inactive) in each case.
On to `CN(N)/N=N/c1[nH]cnc1[N+](=O)[O-]`, for which the GI50 is > 100 µM (inactive) in assay [1]; > 100 µM (inactive) in assay [2]; > 100 µM (inactive) in assay [3]; 34.8 µM (inactive) in assay [4]; 51.2 µM (inactive) in [5]; 14.6 µM (inactive) in assay [6]. The GI50 is > 100 µM (inactive) in assay [7]; > 100 µM (inactive) in assay [8]; 35.4 µM (inactive) in assay [9]; 22 µM (inactive) in assay [10]; 42.9 µM (inactive) in [11]; > 100 µM (inactive) in assay [12]. For the same molecule, the GI50 is > 100 µM (inactive) in assay [13]; > 100 µM (inactive) in [15]; 81.1 µM (inactive) in assay [16]; 20.6 µM (inactive) in assay [17]; > 100 µM (inactive) in assay [18]; 61.1 µM (inactive) in assay [19].
Regarding `CC1SCc2nc3ccccc3n21` (stereo unspecified), the GI50 in [1], in assay [2], in assay [3], in assay [4], in assay [5] and in assay [6] was > 100 µM (inactive) each time. Also, the GI50 in assay [7] was 3.58 µM (inactive); in assay [8], > 100 µM (inactive); in [9], > 100 µM (inactive); in [10], > 100 µM (inactive); in [11], > 100 µM (inactive); in assay [12] it was > 100 µM (inactive). Further, the GI50 in assay [13] was > 100 µM (inactive); in assay [14] it was > 100 µM (inactive); in [15], 0.284 µM (active); in [17], > 100 µM (inactive); in [18], > 100 µM (inactive); in [19], > 100 µM (inactive).
Take `CCCCN(CCCC)CC(O)c1cc(-c2ccc(Cl)c(Cl)c2)nc2c(Cl)cc(Cl)cc12` (stereo unspecified): the GI50 was > 100 µM (inactive) in assay [1]; > 100 µM (inactive) in [2]; 16.2 µM (inactive) in assay [3]; > 100 µM (inactive) in assay [4]; > 100 µM (inactive) in assay [5]; 46.2 µM (inactive) in assay [6]. Further, the GI50 in assay [9] is > 100 µM (inactive); in assay [10], 37.1 µM (inactive); in assay [11], 39.7 µM (inactive); in assay [12], > 100 µM (inactive); in assay [13], > 100 µM (inactive); in assay [14], > 100 µM (inactive). Besides, the GI50 in assay [15] was > 100 µM (inactive); in assay [20] it was 42.6 µM (inactive); in assay [16], 15.6 µM (inactive); in assay [17] it was 37.2 µM (inactive); in assay [18], > 100 µM (inactive); in assay [19] it was 66.4 µM (inactive).
Consider `O=c1nc2n3c4c(cccc4nc-2c(=O)[nH]1)CCC3`, for which the GI50 in [1] was 47 µM (inactive); in [2] it was > 100 µM (inactive); in assay [3], > 100 µM (inactive); in assay [4], 47.5 µM (inactive); in assay [5], > 100 µM (inactive); in assay [6], > 100 µM (inactive). Besides, the GI50 in assay [7] is > 100 µM (inactive); in assay [8] it was 27.2 µM (inactive); in assay [9], > 100 µM (inactive); in assay [10] it was > 100 µM (inactive); in assay [11] it was > 100 µM (inactive); in assay [12], > 100 µM (inactive). Moreover, the GI50 in [13] was > 100 µM (inactive); in [14], > 100 µM (inactive); in assay [15] it was > 100 µM (inactive); in assay [16], > 100 µM (inactive); in [17], 60.7 µM (inactive); in assay [18], > 100 µM (inactive). Also, in assay [19], the GI50 was > 100 µM (inactive).
